US20260102359A1, “COMBINATION TREATMENT OF DERMAL AND TRANSDERMAL FIBROTIC DISEASES, DISORDERS AND ASSOCIATED PAIN AND INFLAMMATION” (ERESINA, LLC, priority 2022, published 2026)
Structures can show the parent of a compound that is named as a salt.

Test system: hDMFa myofibroblast cells

Compound	Compound Myofibroblast Cytotoxicity Activity
Cc1ccc(C(=O)N(CCCN)[C@@H](c2nc3cc(Cl)ccc3c(=O)n2Cc2ccccc2)C(C)C)cc1 [Cmpd 543, Ispinesib (SB-715992)]	+++++
COC(=O)C1=C(C)NC(C)=C(C(=O)OC(C)C)C1c1cccc2nonc12 (stereo not shown) [Cmpd 544, Isradipine (Dynacirc)]	++
C[C@H]1O[C@H](OC2[C@@H](O)[C@@H](O)C(O)[C@H](O)[C@H]2O)[C@@H](N)C[C@@H]1N=C(N)C(=O)O.Cl (stereo partly shown) [Cmpd 548, Kasugamycin (hydrochloride)]	+++
CC(CCc1ccccc1)NCC(O)c1ccc(O)c(C(N)=O)c1 (stereo not shown) [Cmpd 553, Labetalol HCl]	++
CS(=O)(=O)CCNCc1ccc(-c2ccc3ncnc(Nc4ccc(OCc5cccc(F)c5)c(Cl)c4)c3c2)o1 [Cmpd 558, Lapatinib Ditosylate]	+++
CCN(C(=O)c1c(O)c2c(Cl)cccc2n(C)c1=O)c1ccccc1 [Cmpd 559, Laquinimod (ABR-215062)]	++++
N=C(N)NCCC[C@H](N)C(=O)O [Cmpd 561, L-Arginine]	++
O=C1O[C@H]([C@@H](O)CO)C(O)=C1O [Cmpd 562, L-Ascorbic Acid (Vitamin C)]	+
CCCCCCCCCCCC(=O)O [Cmpd 564, Lauric Acid]	++
CCCCCCCCCCCCN1CCCCCC1=O [Cmpd 565, Laurocapram]	+++++
Cc1c(C(=O)Nc2ccc(N3C[C@@H](C)O[C@@H](C)C3)nc2)cccc1-c1ccc(OC(F)(F)F)cc1.O=P(O)(O)O.O=P(O)(O)O [Cmpd 572, LDE225 Diphosphate]	++
Cl.c1ccc2c(-c3cnn4cc(-c5ccc(N6CCNCC6)cc5)cnc34)ccnc2c1 [Cmpd 574, LDN193189 Hydrochloride]	+++++
c1cc(-c2cnn3cc(-c4ccc(N5CCNCC5)cc4)cnc23)c2cccnc2c1 [Cmpd 575, LDN-212854]	++++
Nc1cccc2c1CN(C1CCC(=O)NC1=O)C2=O (stereo not shown) [Cmpd 578, Lenalidomide (CC-5013)]	++
CCOC(=O)C1=C(COCCN)NC(C)=C(C(=O)OC)[C@@H]1c1ccccc1Cl [Cmpd 580, Levamlodipine]	+++++
CC(=O)CCC(=O)O [Cmpd 583, Levulinic acid]	++
N[C@@H](CCC(=O)O)C(=O)[O-].[Na+] [Cmpd 584, L-Glutamic acid monosodium salt]	++
N[C@@H](CCC(=O)N[C@@H](CS)C(=O)NCC(=O)O)C(=O)O [Cmpd 585, L-Glutathione Reduced]	++++
N[C@@H](Cc1c[nH]cn1)C(=O)O [Cmpd 586, L-Histidine]	+
CC1(C)Cc2c(-c3ccccc3)c(-c3ccc(Cl)cc3)c(CC(=O)O)n2C1 [Cmpd 588, Licofelone]	+++
CCN(CC)CC(=O)Nc1c(C)cccc1C.Cl.O [Cmpd 589, Lidocaine hydrochloride monohydrate]	++
CCCCC/C=C\C/C=C\CCCCCCCC(=O)O [Cmpd 591, Linoleic Acid]	+++
C[C@]1(O)C[C@@H](c2nc(-c3ccc4ccc(-c5ccccc5)nc4c3)c3c(N)nccn32)C1 [Cmpd 592, Linsitinib]	+++
CC[C@H](C)[C@H](N)C(=O)O [Cmpd 594, L-Isoleucine]	+
O=C([O-])[O-].[Li+].[Li+] [Cmpd 595, Lithium carbonate]	++++

Compound	Compound Myofibroblast Cytotoxicity Activity
CC(C)C[C@H](N)C(=O)O [Cmpd 596, L-Leucine]	+++
CSCC[C@H](N)C(=O)O [Cmpd 600, L-Methionine]	++++
CN(C)C(=O)C(CCN1CCC(O)(c2ccc(Cl)cc2)CC1)(c1ccccc1)c1ccccc1 [Cmpd 606, Loperamide HCl]	+++
CC(C(=O)O)c1ccc(CC2CCCC2=O)cc1 (stereo not shown) [Cmpd 611, Loxoprofen Sodium]	++
O=C(O)[C@@H]1CCCN1 [Cmpd 612, L-Proline]	++++
O=C1CC[C@@H](C(=O)O)N1 [Cmpd 613, L-Pyroglutamic acid]	++++
C[C@@H](O)[C@H](N)C(=O)O [Cmpd 614, L-Threonine]	+++++
N[C@@H](Cc1c[nH]c2ccccc12)C(=O)O [Cmpd 615, L-Tryptophan]	++
CC(C)[C@H](N)C(=O)O [Cmpd 618, L-Valine]	++
CCN1CCN(Cc2ccc(Nc3ncc(F)c(-c4cc(F)c5nc(C)n(C(C)C)c5c4)n3)nc2)CC1 [Cmpd 622, LY2835219 free base]	++++
C[C@H]1[C@H](C)CC[C@]2(C(=O)O)CC[C@]3(C)C(=CC[C@@H]4[C@@]5(C)C[C@@H](O)[C@H](O)[C@@](C)(CO)[C@@H]5[C@H](O)C[C@]43C)[C@H]12 [Cmpd 625, Madecassic acid]	+++++
NCc1ccc(S(N)(=O)=O)cc1 [Cmpd 626, Mafenide Acetate]	++++
Cl.NCc1ccc(S(N)(=O)=O)cc1 [Cmpd 627, Mafenide hydrochloride]	++
O=C(O)CC(=O)O [Cmpd 631, Malonic acid]	++++
CC(C)OC(=O)C(C(=O)OC(C)C)=C1SC=CS1 [Cmpd 632, Malotilate]	++
CNCCCC12CCC(c3ccccc31)c1ccccc12 [Cmpd 635, Maprotiline HCl]	+++
Cc1cccc(O)c1 [Cmpd 636, m-Cresol]	++
COC(=O)Nc1nc2ccc(C(=O)c3ccccc3)cc2[nH]1 [Cmpd 637, Mebendazole]	++++
CCN(CCCCOC(=O)c1ccc(OC)c(OC)c1)C(C)Cc1ccc(OC)cc1.Cl (stereo not shown) [Cmpd 638, Mebeverine Hydrochloride]	++
CNC1(C)C2CCC(C2)C1(C)C.Cl (stereo not shown) [Cmpd 639, Mecamylamine hydrochloride]	++++
Cc1cccc(CN2CCN(C(c3ccccc3)c3ccc(Cl)cc3)CC2)c1.Cl.Cl (stereo not shown) [Cmpd 641, Meclizine 2HCl]	++
CC(=O)O[C@]1(C(C)=O)CC[C@H]2[C@@H]3C[C@H](C)C4=CC(=O)CC[C@]4(C)[C@H]3CC[C@@]21C [Cmpd 643, Medroxyprogesterone acetate]	++
Cl.OC(c1cc(C(F)(F)F)nc2c(C(F)(F)F)cccc12)C1CCCCN1 (stereo not shown) [Cmpd 644, Mefloquine hydrochloride]	++++
CC(C)=CCC/C(C)=C/CC/C(C)=C/CC/C(C)=C/CC1=C(C)C(=O)c2ccccc2C1=O [Cmpd 652, Menaquinone 4]	++
